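Growth conditions: 96-well plates. Treatment: test compound, 48 hours, 5 concentrations. Analysis: linear interpolation between bracketing concentrations; unreached endpoints set to highest concentration. The concentration for 50% growth inhibition is given as GI50. Definition used: TGI = concentration required for complete inhibition of growth.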
Experiments:
Test in all cases: NCI-60 cell line screen, 48 h; in the data active = GI50 below about 0.43 µM; inactive = the rest
HCT-15 colon = tested on: HCT-15 colon
HCT-116 colon = tested on: HCT-116 colon
MALME-3M melanoma = tested on: MALME-3M melanoma
PC-3 prostate = tested on: PC-3 prostate
NCI-H522 lung = tested on: NCI-H522 lung
T-47D breast = tested on: T-47D breast
OVCAR-4 ovarian = tested on: OVCAR-4 ovarian
SF-268 CNS = tested on: SF-268 CNS
CCRF-CEM leukemia = tested on: CCRF-CEM leukemia
DU-145 prostate = tested on: DU-145 prostate
OVCAR-3 ovarian = tested on: OVCAR-3 ovarian
BT-549 breast = tested on: BT-549 breast
LOX IMVI melanoma = tested on: LOX IMVI melanoma
IGROV1 ovarian = tested on: IGROV1 ovarian
NCI/ADR-RES ovarian = tested on: NCI/ADR-RES ovarian
HL-60(TB) leukemia = tested on: HL-60(TB) leukemia
OVCAR-5 ovarian = tested on: OVCAR-5 ovarian
SR leukemia = tested on: SR leukemia
786-0 renal = tested on: 786-0 renal
A498 renal = tested on: A498 renal
NCI-H460 lung = tested on: NCI-H460 lung
TK-10 renal = tested on: TK-10 renal
SF-295 CNS = tested on: SF-295 CNS
UACC-257 melanoma = tested on: UACC-257 melanoma
RXF 393 renal = tested on: RXF 393 renal
MDA-MB-231 breast = tested on: MDA-MB-231 breast
K-562 leukemia = tested on: K-562 leukemia
UACC-62 melanoma = tested on: UACC-62 melanoma
ACHN renal = tested on: ACHN renal
KM12 colon = tested on: KM12 colon
HOP-62 NSCLC = tested on: HOP-62 NSCLC
NCI-H23 lung = tested on: NCI-H23 lung
U251 CNS = tested on: U251 CNS
SW-620 colon = tested on: SW-620 colon
SNB-19 CNS = tested on: SNB-19 CNS

CCOC(=O)c1c(NC(=O)c2cccc(C(F)(F)F)c2)sc2c1CCC(=O)C2
9.03 µM: TGI (RXF 393 renal)
inactive: GI50 (HCT-15 colon) 0.652 µM | GI50 (HCT-116 colon) 0.49 µM | GI50 (MALME-3M melanoma) > 100 µM | GI50 (PC-3 prostate) 1.31 µM | GI50 (NCI-H522 lung) 0.514 µM | GI50 (T-47D breast) 2.12 µM | GI50 (OVCAR-4 ovarian) 3.14 µM | GI50 (SF-268 CNS) 4.17 µM | GI50 (CCRF-CEM leukemia) 1.03 µM | GI50 (DU-145 prostate) > 100 µM | GI50 (OVCAR-3 ovarian) 3.53 µM | GI50 (BT-549 breast) 1.61 µM | GI50 (LOX IMVI melanoma) 0.633 µM | GI50 (IGROV1 ovarian) 2.4 µM | GI50 (NCI/ADR-RES ovarian) 3.06 µM | GI50 (HL-60(TB) leukemia) 1.9 µM | GI50 (OVCAR-5 ovarian) 2.12 µM | GI50 (SR leukemia) 0.526 µM | GI50 (786-0 renal) 3.54 µM | GI50 (A498 renal) > 100 µM | GI50 (NCI-H460 lung) 2.66 µM | GI50 (TK-10 renal) 5.09 µM | GI50 (SF-295 CNS) 3.08 µM | GI50 (UACC-257 melanoma) > 100 µM | GI50 (RXF 393 renal) 3.36 µM | GI50 (MDA-MB-231 breast) 3.5 µM | GI50 (K-562 leukemia) 0.488 µM | GI50 (UACC-62 melanoma) 2.11 µM | GI50 (ACHN renal) 2.65 µM | GI50 (KM12 colon) 2.88 µM | GI50 (HOP-62 NSCLC) 5.2 µM | GI50 (NCI-H23 lung) 3 µM | GI50 (U251 CNS) 0.479 µM | GI50 (SW-620 colon) 0.445 µM | GI50 (SNB-19 CNS) 1.53 µM
6.81 µM: TGI (NCI-H522 lung)
> 100 µM: TGI (HCT-15 colon) | TGI (HCT-116 colon) | TGI (MALME-3M melanoma) | TGI (PC-3 prostate) | TGI (T-47D breast) | TGI (OVCAR-4 ovarian) | TGI (SF-268 CNS) | TGI (CCRF-CEM leukemia) | TGI (DU-145 prostate) | TGI (OVCAR-3 ovarian) | TGI (BT-549 breast) | TGI (LOX IMVI melanoma) | TGI (IGROV1 ovarian) | TGI (NCI/ADR-RES ovarian) | TGI (HL-60(TB) leukemia) | TGI (OVCAR-5 ovarian) | TGI (SR leukemia) | TGI (786-0 renal) | TGI (A498 renal) | TGI (NCI-H460 lung) | TGI (TK-10 renal) | TGI (SF-295 CNS) | TGI (UACC-257 melanoma) | TGI (MDA-MB-231 breast) | TGI (K-562 leukemia) | TGI (UACC-62 melanoma) | TGI (ACHN renal) | TGI (KM12 colon) | TGI (HOP-62 NSCLC) | TGI (NCI-H23 lung) | TGI (U251 CNS) | TGI (SW-620 colon) | TGI (SNB-19 CNS)

— PubChem BioAssay (NCI)
